Experimental data published in patent US20220040304A1, “A COMPOSITION FOR CANCER CELL DEATH AND ITS USE” (Industry-University Cooperation Foundation Hanyang …, priority 2018, published 2022).
Several values for one entry are separate records, joined by “and”; a condition that tells them apart may be missing. Identical values can stand only once.

How the values were obtained:
singlet oxygen = assay: ROS generation: singlet oxygen measured by decrease of ADPA fluorescence; type: biochemical
Description: A ROS-generating effect of the RLuc8-MS protein was confirmed using 100 μL of buffer (50 mM HEPES-KOH, 24° C., pH 7.4) containing RLuc8-MS protein (final concentration: 10 μM), anthracene-9,10-dipropionic acid (ADPA, Abcam., UK; final concentration: 50 μM) whose fluorescence intensity decreases in the presence of singlet oxygen, flavin mononucleotide (FMN) (final concentration: 150 μM) and a Co-h substrate solution. The rate of decrease in fluorescence intensity was measured at the excitation wavelength of 380 nm and the emission wavelength of 430 nm of ADPA using a plate reader.
a ROS-generating effect of the RLuc8-MS protein was measured using RLuc8-MS (final concentration: 10 μM) and ADPA (final concentration: 50 μM) whose fluorescence intensity decreases in the presence of singlet oxygen.
Here, the active oxygen generation rate of each protein was measured using 100 μL of buffer (50 mM HEPES-KOH, 24° C., pH 7.4) containing FMN (final concentration: 150 μM) and a Co-h substrate solution (final concentration: 150 μM).
The rate of decrease in fluorescence intensity was measured at the excitation wavelength of 370 nm and the emission wavelength of 420 nm of DHE using a plate reader. In addition, the rate of decrease in fluorescence intensity was measured at the excitation wavelength of 380 nm and the emission wavelength of 430 nm of ADPA using a plate reader.
(§1) A ROS generation rate was measured using 100 μL of buffer (50 mM HEPES-KOH, 24° C., pH 7.4) containing the KR protein, RLuc8.6-KR protein (final concentration: 10 μM) and ADPA (final concentration: 50 μM) whose fluorescence intensity decreases in the presence of singlet oxygen.
(§2) A ROS generation rate was measured using 100 μL of buffer (50 mM HEPES-KOH, 24° C., pH 7.4) containing MS, RLuc8-MS (final concentration: 10 μM), ADPA (final concentration: 50 μM) whose fluorescence intensity decreases in the presence of singlet oxygen and FMN (final concentration: 150 μM).
After irradiation with light at 10 mW/cm^2 for 30 minutes, the rate of decrease in fluorescence intensity was measured at the excitation wavelength of 380 nm and the emission wavelength of 430 nm of ADPA using a plate reader.
as §1, with “oxygen and a Co-h substrate solution (final concentration: 150 μM).” for “oxygen.”
as §2, with “oxygen,” for “oxygen and”, “150 μM) and a Co-h substrate solution (final concentration: 150” for “150”
The rate of decreasing fluorescence intensity was measured at the excitation wavelength of 380 nm and the emission wavelength of 430 nm of ADPA using a plate reader. […]

BT-474 = assay: Cell death with Co-h substrate by cell type (SYTOX Green or EthD-1/DAPI); type: cell-based, human; settings: BT-474, protein 10 μM, Co-h 150 μM for 5 minutes
Description: (§3) The cells were seeded at 5×10^5 cells/mL in 96-well plates (SPL Cell Culture Plate, 96 well (SPL, Cat #30096)), and cultured at 37° C. for 24 hours (overnight). After the culture for 24 hours, the cells were washed with FBS & phenol red-free media, and 100 μL of FBS & phenol red-free media containing a purified protein (final concentration: 10 μM) was added, followed by reaction at 37° C. for 24 hours.
(§4) Subsequently, the cells were washed with FBS & phenol red-free media, and 100 μL of FBS & phenol red-free media was added. 100 μL of FBS & Phenol red-free media (RPMI) containing a Co-h substrate solution (final concentration: 150 μM) was added, followed by reaction at 37° C. for 5 minutes.
(§5) After the reaction, 50 μL of SYTOX Green (final concentration: 261 nM) or 90 μL of ethidium homodimer (EthD-1) (final concentration 1×), which stains DNA of dead cells, was added, followed by reaction at 37° C. for 30 minutes. 10 μL of DAPI staining DNA of live cells was added, followed by reaction for 5 minutes. Cell death was confirmed by observing KillerRed, SYTOX Green, MiniSOG, EthD-1 and DAPI fluorescence using a confocal microscope.

MDA-MB-435 = assay: as above; type: cell-based, human; settings: MDA-MB-435, protein 10 μM, Co-h 150 μM for 5 minutes
Description: as §3, §4, §5

MCF-7 = assay: as above; type: cell-based, human; settings: MCF-7, protein 10 μM, Co-h 150 μM for 5 minutes
Description: as §3, §4, §5

MDA-MB-231 = assay: as above; type: cell-based, human; settings: MDA-MB-231, protein 10 μM, Co-h 150 μM for 5 minutes
Description: as §3, §4, §5

SK-BR-3 = assay: as above; type: cell-based, human; settings: SK-BR-3, protein 10 μM, Co-h 150 μM for 5 minutes
Description: as §3, §4, §5

[1] = Fluorescence assay of purified proteins (excitation/emission); type: physicochemical; settings: protein 10 μM in 1×PBS
Description: 100 μL of buffer (1×PBS) containing the protein purified in Example 1 (final concentration: 10 μM) was dispensed into a 96-well plate (SPL Cell Culture Plate, 96 well (SPL, Cat #32096)). Afterward, a fluorescence signal level was detected by fluorescence assay using a Thermo Scientific™ Varioskan™ Flash Multimode Reader.

| Substance | singlet oxygen generation rate after Co-h substrate reaction (singlet oxygen; Co-h 150 μM, 30-min reaction, without light irradiation, protein 10 μM, ADPA) | Co-h concentration until which the singlet oxygen generation rate increased, then constantly maintained (singlet oxygen; protein 10 μM, ADPA 50 μM, FMN 150 μM, substrate reaction time 5 minutes) [µM] | reaction time with Co-h until which the singlet oxygen generation rate increased, then constantly maintained (singlet oxygen; protein 10 μM, Co-h 150 μM, ADPA) [min] | cell death with Co-h substrate (BT-474) | cell death with Co-h substrate (MDA-MB-435) | cell death with Co-h substrate (MCF-7) | cell death with Co-h substrate (MDA-MB-231) | cell death with Co-h substrate (SK-BR-3) | emission wavelength (fluorescence) [1] | excitation wavelength [1] [nm] | singlet oxygen generation rate after light irradiation (singlet oxygen; 10 mW/cm^2, 30 minutes, no substrate, protein 10 μM, ADPA) | singlet oxygen generation rate by Co-h reaction after ROS scavenger treatment (singlet oxygen; RLuc8-MS 10 μM, Co-h 150 μM 30 minutes, SOD 800 U/ml, sodium azide 100 mM or D-mannitol 100 mM) |
| --- | --- | --- | --- | --- | --- | --- | --- | --- | --- | --- | --- | --- |
| RLuc8-MS: fusion protein of RLuc8 and MiniSOG without lead peptide, 53 kDa | highest singlet oxygen generation rate | 150 | 20 | none of the six breast cancer cell lines were killed | none of the six breast cancer cell lines were killed | none of the six breast cancer cell lines were killed | none of the six breast cancer cell lines were killed | none of the six breast cancer cell lines were killed | – | – | – | – |
| MS: first protein MiniSOG, ROS-generating protein (singlet oxygen), expressed from pRSET-MiniSOG, 13 kDa [reference compound] | – | – | – | – | – | – | – | – | 500 nm and 528 nm | 448 | higher singlet oxygen generation rate | lowest when sodium azide was treated |
